For this assay, the target named is T1, human A934T SLACK (Homo sapiens, UniProt Q5JUK3, A915T).
T1 construct: host or cells: CHO-K1
T1 sequence (Q5JUK3 1-1235 isoform Q5JUK3-3 A934T): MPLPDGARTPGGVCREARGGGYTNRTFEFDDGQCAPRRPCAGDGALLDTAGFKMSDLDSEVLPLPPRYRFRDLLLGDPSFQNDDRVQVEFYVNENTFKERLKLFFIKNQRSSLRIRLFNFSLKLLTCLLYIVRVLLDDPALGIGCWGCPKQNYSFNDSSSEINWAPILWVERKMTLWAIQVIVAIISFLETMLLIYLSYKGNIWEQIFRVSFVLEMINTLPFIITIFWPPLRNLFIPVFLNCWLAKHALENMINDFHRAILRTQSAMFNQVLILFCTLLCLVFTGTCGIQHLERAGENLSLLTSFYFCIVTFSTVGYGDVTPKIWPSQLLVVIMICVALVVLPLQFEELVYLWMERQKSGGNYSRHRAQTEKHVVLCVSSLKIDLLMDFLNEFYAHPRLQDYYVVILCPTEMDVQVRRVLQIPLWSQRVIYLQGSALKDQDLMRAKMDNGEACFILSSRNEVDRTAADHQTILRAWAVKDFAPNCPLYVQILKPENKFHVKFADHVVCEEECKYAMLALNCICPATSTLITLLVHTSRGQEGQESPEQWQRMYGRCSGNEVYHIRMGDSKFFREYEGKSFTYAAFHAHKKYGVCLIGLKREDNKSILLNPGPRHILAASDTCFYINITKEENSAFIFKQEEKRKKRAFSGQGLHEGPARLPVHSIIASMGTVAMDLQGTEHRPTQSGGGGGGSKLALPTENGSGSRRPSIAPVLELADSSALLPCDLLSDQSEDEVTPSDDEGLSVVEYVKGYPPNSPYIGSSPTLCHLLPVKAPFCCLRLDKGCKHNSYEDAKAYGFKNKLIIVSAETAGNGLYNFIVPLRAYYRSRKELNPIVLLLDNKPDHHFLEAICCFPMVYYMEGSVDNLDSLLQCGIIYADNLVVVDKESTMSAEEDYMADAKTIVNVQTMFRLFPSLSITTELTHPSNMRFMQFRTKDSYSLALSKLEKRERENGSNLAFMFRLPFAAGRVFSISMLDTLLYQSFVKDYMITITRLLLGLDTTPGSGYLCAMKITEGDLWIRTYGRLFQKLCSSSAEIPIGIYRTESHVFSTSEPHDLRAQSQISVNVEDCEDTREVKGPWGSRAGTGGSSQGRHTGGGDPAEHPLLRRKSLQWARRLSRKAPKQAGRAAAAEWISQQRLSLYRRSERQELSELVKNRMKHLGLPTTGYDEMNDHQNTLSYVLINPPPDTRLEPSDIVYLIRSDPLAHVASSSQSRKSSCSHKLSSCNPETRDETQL
The assay is described as follows: Whole-cell APC in CHO cells stably expressing human A934T SLACK. Type of assay: cell-based. The following applies: for IC50: APC, CHO cells; for Imax: maximum inhibition at 30 µM standardized to VU0606170 (100%). From the text:
Development of a useful SLACK inhibitor in vivo tool will require potent activity at the corresponding mouse ortholog as studies in appropriate mouse models will be critical. Thus, we evaluated analogs 32 and 48 in our APC assay using CHO cells stably expressing mouse WT SLACK (Table 6). […] We were also eager to evaluate the same compounds with regard to their ability to inhibit clinically relevant GOF SLACK mutants. Both the C-terminus A934T mutant and transmembrane G288S mutant have been associated with clinical cases of EIMFS [3, 7].
Stably transfected monoclonal HEK293 cell lines expressing Slick, Maxi-K α1/β3, Maxi-K α1/β4, CaV3.2, GIRK 1/2, KV2.1, KV7.2, NaV1.7, and TASK-1 were generated as previously described. Stably transfected monoclonal HEK293 cell lines expressing hERG were generated as previously described. CHO-K1 cells expressing human Slack and disease-associated human Slack mutations, G288S and A934T, were generated by transfecting a PiggyBac TRE mammalian expression vector (VectorBuilder, Chicago, IL, USA) containing KCNT1. FuGENE 6 (Promega, Madison, WI, USA) transfection reagent and protocol, together with Opti-MEM (Thermo Fisher Scientific, Walkham, MA, USA), were utilized.
Automated patch-clamp recording was performed with a SyncroPatch 768 PE system (Nanion, Munich, Germany) as previously described. Whole-cell recordings were performed at room temperature. Cells were harvested by first washing with PBS without Mg^2+ or Ca^2+ (Gibco, Billings, MT, USA) to remove cell culture media, followed by dissociation with TryPLE (Gibco, Billings, MT, USA). Cells were then resuspended and diluted to 100,000 cells/mL in external solution. External solution contained 105 mM NaCl, 4 mM KCl, 1 mM MgCl2, 5 mM CaCl2, 10 mM HEPES, and 40 mM N-Methyl-D-glucamine chloride, titrated to pH of 7.4 and osmolarity of 300 mOsm/kg; internal solution contained 70 mM NaCl, 70 mM KF, 10 mM KCl, 5 mM EGTA, and 5 mM HEPES, titrated to a pH of 7.2 and osmolarity of 295 mOsm/kg.
The APC protocol was set as follows: Cells were held at a […] of −80 mV for 100 ms, then a ramp protocol was performed from −100 mV to 80 mV at 0.4 mV/ms, followed by holding the cell at −80 mV for another 100 ms, then steps were performed at −20 mV, 0 mV, +20 mV, +40 mV, and +60 mV for 100 ms of each step. Whole-cell currents were measured at 0 mV and normalized to current after external buffer addition. […] To obtain the concentration-response relationship graphs and IC50 values, we take the median value of the last 7 current amplitude values obtained for each set of data points collected for a given concentration at a particular step.

Each structure is given as a SMILES string.

As usually defined, the IC50 is the concentration at which inhibition is half-maximal. `CCCCN(Cc1ccc(F)cc1)c1nc2c(c(=O)n(Cc3cccc(OC)c3)c(=O)n2C)n1C` [Analog 80] gave an IC50 of 0.59 µM.

Regarding `COc1cccc(Cn2c(=O)c3c(nc(N(Cc4cccc(F)c4)CC4CC4)n3C)n(C)c2=O)c1` [Analog 79], half-maximal inhibition (IC50) was put at 1 µM.

For `CCCCN(Cc1cccc(F)c1)c1nc2c(c(=O)n(Cc3cccc(OC)c3)c(=O)n2C)n1C` [Analog 78], 0.35 µM corresponded to half-maximal inhibition (IC50).

`CN(Cc1cccc(F)c1)c1nc2c(c(=O)n(Cc3ccccc3)c(=O)n2C)n1C` [Analog 48]: it took 0.82 µM to reach half-maximal inhibition (IC50) and the Imax was 100%.

Compound `COc1cccc(Cn2c(=O)c3c(nc(N(Cc4ccc(F)cc4)CC4CC4)n3C)n(C)c2=O)c1` [Analog 81] showed an IC50 of 1.2 µM.

The compound `COc1cccc(Cn2c(=O)c3c(nc(N(C)Cc4ccccc4)n3C)n(C)c2=O)c1` [Analog 32] yielded an IC50 of 0.78 µM and an Imax of 99%.

(Values after publication PMC11173529, “Structure–Activity Relationship Studies in a Series of Xanthine Inhibitors of SLACK Potassium Channels” (Molecules, 2024).)
